Measurements published in ChEMBL document CHEMBL1201862, “PubChem BioAssay data set” (2004).
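Growth conditions: 96-well plates. Treatment: test compound, 48 hours, 5 concentrations. Analysis: linear interpolation between bracketing concentrations; unreached endpoints set to highest concentration. GI50: concentration for 50% inhibition of growth.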 Active and inactive are the calls of the source. No stated cut-off is given here; in the data, active = GI50 up to about 1.1 µM and inactive = higher.

Columns and labels:
Test in all cases: NCI tumour cell line growth inhibition, 48 h
HOP-92 = system: HOP-92
HCC 2998 = system: HCC 2998
EKVX = system: EKVX
RXF 393 = system: RXF 393
DU-145 = system: DU-145
MDA-MB-231 = system: MDA-MB-231
SNB-19 = system: SNB-19
OVCAR-8 = system: OVCAR-8
NCI-H23 = system: NCI-H23
OVCAR-5 = system: OVCAR-5
NCI-H460 = system: NCI-H460
PC-3 = system: PC-3
U-251 = system: U-251
NCI/ADR-RES = system: NCI/ADR-RES
M14 = system: M14
SN12C = system: SN12C
MDA-MB-435 = system: MDA-MB-435
COLO 205 = system: COLO 205

Measured: GI50

c1ccc2sc(SCSc3nc4ccccc4s3)nc2c1
inactive: HOP-92 > 100 µM | HCC 2998 75.9 µM | EKVX 50.1 µM | RXF 393 > 100 µM | DU-145 > 100 µM | MDA-MB-231 > 100 µM | SNB-19 > 100 µM | OVCAR-8 > 100 µM | NCI-H23 70.3 µM | OVCAR-5 > 100 µM | NCI-H460 22.4 µM | PC-3 42.1 µM | U-251 39.3 µM | NCI/ADR-RES 94 µM | M14 > 100 µM | SN12C > 100 µM | MDA-MB-435 > 100 µM

COc1ccc2nc(NCN3C(=O)c4ccccc4C3=O)sc2c1
inactive: HOP-92 > 100 µM | EKVX > 100 µM | RXF 393 > 100 µM | DU-145 > 100 µM | MDA-MB-231 > 100 µM | SNB-19 > 100 µM | OVCAR-8 > 100 µM | NCI-H23 > 100 µM | OVCAR-5 > 100 µM | NCI-H460 > 100 µM | PC-3 > 100 µM | U-251 > 100 µM | NCI/ADR-RES > 100 µM | COLO 205 > 100 µM | M14 > 100 µM | SN12C > 100 µM | MDA-MB-435 > 100 µM

CN(C)CC(C)(C)CN1c2ccccc2Sc2ccccc21
inactive: HOP-92 11.8 µM | EKVX 15.4 µM | RXF 393 2.12 µM | DU-145 12.4 µM | MDA-MB-231 12 µM | SNB-19 15.6 µM | OVCAR-8 15.3 µM | NCI-H23 16.4 µM | OVCAR-5 14.8 µM | NCI-H460 13.5 µM | PC-3 12.9 µM | U-251 13.6 µM | NCI/ADR-RES 12.7 µM | COLO 205 12.2 µM | M14 10.4 µM | SN12C 12.9 µM | MDA-MB-435 13.4 µM

CCOc1ccc2ccc3cccnc3c2n1
inactive: HOP-92 44.7 µM | HCC 2998 51.6 µM | EKVX 36.5 µM | RXF 393 68.9 µM | DU-145 > 100 µM | MDA-MB-231 38.4 µM | SNB-19 > 100 µM | OVCAR-8 72.8 µM | NCI-H23 61.7 µM | OVCAR-5 55.6 µM | NCI-H460 36.3 µM | PC-3 34.2 µM | U-251 48.4 µM | NCI/ADR-RES 37.7 µM | COLO 205 28.7 µM | M14 47.2 µM | SN12C > 100 µM | MDA-MB-435 49.3 µM

N#CC1=C(N)OC2=C(CSc3ccccc32)C1c1ccc(Br)cc1 (centres undefined)
inactive: HOP-92 6.78 µM | EKVX 2.81 µM | RXF 393 4.04 µM | DU-145 20 µM | MDA-MB-231 11.7 µM | SNB-19 17.7 µM | OVCAR-8 2.75 µM | NCI-H23 9.75 µM | OVCAR-5 11.6 µM | NCI-H460 12.1 µM | PC-3 4.42 µM | U-251 4.65 µM | NCI/ADR-RES 2.15 µM | COLO 205 2.94 µM | M14 9.27 µM | SN12C 6.19 µM | MDA-MB-435 2.6 µM

Cc1ccc(C(=O)/C=C2\Nc3ccccc3N=C2NC23CC4CC(CC(C4)C2)C3)cc1
inactive: HOP-92 > 10 µM | HCC 2998 > 10 µM | DU-145 > 10 µM | MDA-MB-231 > 10 µM | SNB-19 > 10 µM | OVCAR-8 > 10 µM | NCI-H23 > 10 µM | OVCAR-5 > 10 µM | PC-3 > 10 µM | U-251 > 10 µM | NCI/ADR-RES > 10 µM | COLO 205 > 10 µM | M14 > 10 µM | SN12C > 10 µM | MDA-MB-435 > 10 µM

O=[N+]([O-])c1c2nc3n(c2cc2c1nc1n2CCC1)CCC3
inactive: HOP-92 > 100 µM | HCC 2998 > 100 µM | EKVX > 100 µM | RXF 393 > 100 µM | DU-145 > 100 µM | MDA-MB-231 > 100 µM | SNB-19 > 100 µM | OVCAR-8 > 100 µM | NCI-H23 > 100 µM | OVCAR-5 > 100 µM | NCI-H460 > 100 µM | PC-3 > 100 µM | U-251 > 100 µM | NCI/ADR-RES > 100 µM | COLO 205 > 100 µM | M14 > 100 µM | SN12C > 100 µM | MDA-MB-435 > 100 µM

CCOC(=O)N/N=C(\CC)NO
inactive: HOP-92 > 100 µM | HCC 2998 > 100 µM | EKVX > 100 µM | RXF 393 > 100 µM | DU-145 > 100 µM | MDA-MB-231 > 100 µM | SNB-19 > 100 µM | OVCAR-8 > 100 µM | NCI-H23 > 100 µM | OVCAR-5 > 100 µM | NCI-H460 > 100 µM | PC-3 > 100 µM | U-251 > 100 µM | NCI/ADR-RES > 100 µM | COLO 205 > 100 µM | SN12C > 100 µM | MDA-MB-435 > 100 µM

CCCCC(O)(c1ccccc1)C(O)(c1ccccc1)c1c(F)c(F)c(F)c(F)c1F (centres undefined)
inactive: HOP-92 17.4 µM | HCC 2998 15.7 µM | EKVX 17.9 µM | DU-145 48.1 µM | MDA-MB-231 16 µM | SNB-19 41.8 µM | OVCAR-8 22.1 µM | NCI-H23 29 µM | OVCAR-5 18.3 µM | NCI-H460 23.7 µM | PC-3 19.1 µM | U-251 17.3 µM | NCI/ADR-RES 19.5 µM | COLO 205 > 10 µM | M14 30.3 µM | SN12C 17.1 µM | MDA-MB-435 31.8 µM

CCOC(=O)C1=NN(c2ccccc2)C(=O)/C1=C\NC(=S)C(N)=S
inactive: HOP-92 39.1 µM | HCC 2998 43.4 µM | EKVX 27.2 µM | RXF 393 29.2 µM | DU-145 50.9 µM | MDA-MB-231 65.2 µM | SNB-19 64.9 µM | OVCAR-8 45.5 µM | NCI-H23 87.1 µM | OVCAR-5 38.6 µM | NCI-H460 49.3 µM | PC-3 47.5 µM | U-251 42.3 µM | NCI/ADR-RES > 100 µM | COLO 205 28.1 µM | M14 26.5 µM | SN12C 37.8 µM | MDA-MB-435 33.8 µM

Nn1c(SCC(=O)NCc2ccccc2)nc2ccccc2c1=O
inactive: HOP-92 34.2 µM | HCC 2998 44.8 µM | EKVX 64.3 µM | RXF 393 34.1 µM | DU-145 65 µM | MDA-MB-231 57.8 µM | SNB-19 67 µM | OVCAR-8 40.6 µM | NCI-H23 82.8 µM | OVCAR-5 > 100 µM | NCI-H460 46.3 µM | PC-3 54.7 µM | U-251 88.9 µM | NCI/ADR-RES 36.5 µM | COLO 205 48.5 µM | M14 36.6 µM | SN12C > 100 µM | MDA-MB-435 45.8 µM

O=C(Nn1c(-c2ccccc2)nc2ccccc2c1=O)c1ccccn1
inactive: HOP-92 78 µM | HCC 2998 > 100 µM | EKVX > 100 µM | RXF 393 45.3 µM | DU-145 > 100 µM | MDA-MB-231 > 100 µM | SNB-19 > 100 µM | OVCAR-8 64.4 µM | NCI-H23 > 100 µM | NCI-H460 > 100 µM | PC-3 > 100 µM | U-251 75.7 µM | NCI/ADR-RES > 100 µM | COLO 205 > 100 µM | M14 > 100 µM | SN12C > 100 µM | MDA-MB-435 > 100 µM

CCn1c(=O)c2nc(SC)sc2n(-c2ccccc2)c1=O
inactive: HOP-92 54.1 µM | HCC 2998 > 100 µM | RXF 393 > 100 µM | DU-145 > 100 µM | MDA-MB-231 > 100 µM | SNB-19 > 100 µM | OVCAR-8 > 100 µM | NCI-H23 > 100 µM | OVCAR-5 > 100 µM | NCI-H460 > 100 µM | PC-3 > 100 µM | U-251 > 100 µM | NCI/ADR-RES > 100 µM | COLO 205 > 100 µM | M14 > 100 µM | SN12C > 100 µM | MDA-MB-435 > 100 µM

CC(C)C1=CC23CCC4C(C)(C(=O)O)CCCC4(C)C2CC1C1C(=O)N(c2ccc(C(=O)O)cc2)C(=O)C13 (centres undefined)
inactive: HOP-92 > 100 µM | HCC 2998 > 100 µM | EKVX > 100 µM | RXF 393 > 100 µM | DU-145 > 100 µM | MDA-MB-231 > 100 µM | SNB-19 > 100 µM | OVCAR-8 > 100 µM | NCI-H23 > 100 µM | NCI-H460 > 100 µM | PC-3 > 100 µM | U-251 > 100 µM | NCI/ADR-RES > 100 µM | COLO 205 > 100 µM | M14 > 100 µM | SN12C > 100 µM | MDA-MB-435 > 100 µM

C/C=C1/CN2CCC3(O)c4ccccc4N4C=C(C(=O)OC)C1CC2C43O (centres undefined)
inactive: HOP-92 > 100 µM | HCC 2998 > 100 µM | EKVX > 100 µM | DU-145 > 100 µM | MDA-MB-231 > 10 µM | SNB-19 > 100 µM | OVCAR-8 > 100 µM | NCI-H23 > 100 µM | OVCAR-5 > 100 µM | NCI-H460 > 100 µM | PC-3 > 100 µM | U-251 > 100 µM | NCI/ADR-RES > 100 µM | COLO 205 > 100 µM | M14 > 100 µM | SN12C > 100 µM | MDA-MB-435 > 100 µM

COc1cc(C=O)ccc1O [VANILLIN]
inactive: HOP-92 > 100 µM | HCC 2998 > 100 µM | EKVX > 100 µM | DU-145 > 100 µM | MDA-MB-231 > 100 µM | SNB-19 > 100 µM | OVCAR-8 > 100 µM | NCI-H23 > 100 µM | OVCAR-5 > 100 µM | NCI-H460 > 100 µM | PC-3 > 100 µM | U-251 > 100 µM | NCI/ADR-RES > 100 µM | COLO 205 > 100 µM | M14 > 100 µM | SN12C > 100 µM | MDA-MB-435 > 100 µM
